Results: patent US20140158233A1, “AEROSOL DELIVERY TO A MICROFLUIDIC DEVICE” (PRESIDENT AND FELLOWS OF HARVARD COLLEGE, priority 2011, published 2014)

Tested on: human alveolar epithelial cells (A549)
Test: Aerosol delivery of a model agent to cells in a lung-on-a-chip (cell uptake, time-course fluorescence images)
Assay type: cell-based
Settings: 50 micromolar fluorescein sodium in isotonic PBS, nebulized droplets, flow ~20 mL/hr into top channel; confluent A549 monolayer at air interface; images 0-10 min (FIGS. 14A-14D)
Excerpt: In accordance with some embodiments described herein, an agent can be aerosolized and directed to a microfluidic channel for delivery of the agent to a cell. In some embodiments, the microfluidic channel can be present in a lung-on-a-chip device as described earlier. By way of example only, to evaluate efficacy of aerosol delivery to and/or deposition on a cell using one or more embodiments of the aerosol delivery device described herein, a monolayer of human alveolar epithelial cells (A549) was grown to confluence on the top side of a porous membrane of the lung-on-a-chip, for example, the one described in the International Patent Application WO 2010/009307, the content of which is incorporated herein by reference. In some embodiments, no cells were seeded on the bottom side of the membrane. […] In some embodiments, at least the top channel inlet port 1310 of the lung-on-a-chip 1300 can be modified to include an inertial impactor as described herein. […] The microchannel 142 (in fluid communication with the chamber 150) and the porous membrane 160 can be directly or indirectly connected to the top channel 1320 and the porous membrane 1340 of the lung-on-a-chip 1300. […]

- cell uptake of aerosolized fluorescein after deposition on the cells: taken up by the cells
Structure (SMILES): O=C1OC2(c3ccc(O)cc3Oc3cc(O)ccc32)c2ccccc21 [fluorescein, fluorescein sodium]
